{
  "source": "patent US11912734B2",
  "about": "“Solid-phase synthesis of oligonucleotides containing N6-(2-deoxy-alpha,beta-derythropentofuranosyl)-2,6-diamino-4-hydroxy-5-formamidopyrimidine (Fapy⋅dG)” (The Johns Hopkins University, priority 2020, dated 2024)",
  "origin": "cited, not measured here",
  "key": {"Fpg": {"biological_target": "Fpg (Escherichia coli, UniProt P05523)", "sequence (P05523 whole entry)": "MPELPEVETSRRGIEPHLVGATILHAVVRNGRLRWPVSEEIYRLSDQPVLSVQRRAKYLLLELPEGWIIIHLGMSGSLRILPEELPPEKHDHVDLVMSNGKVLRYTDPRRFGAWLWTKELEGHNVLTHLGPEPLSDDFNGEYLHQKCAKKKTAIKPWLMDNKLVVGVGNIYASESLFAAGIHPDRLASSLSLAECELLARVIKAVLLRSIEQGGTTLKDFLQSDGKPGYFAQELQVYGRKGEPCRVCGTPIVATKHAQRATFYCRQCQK", "details": "Fapy·dG:dC versus Fapy·dG:dA"}, "MutY": {"biological_target": "MutY (Escherichia coli, UniProt P17802)", "sequence (P17802 whole entry)": "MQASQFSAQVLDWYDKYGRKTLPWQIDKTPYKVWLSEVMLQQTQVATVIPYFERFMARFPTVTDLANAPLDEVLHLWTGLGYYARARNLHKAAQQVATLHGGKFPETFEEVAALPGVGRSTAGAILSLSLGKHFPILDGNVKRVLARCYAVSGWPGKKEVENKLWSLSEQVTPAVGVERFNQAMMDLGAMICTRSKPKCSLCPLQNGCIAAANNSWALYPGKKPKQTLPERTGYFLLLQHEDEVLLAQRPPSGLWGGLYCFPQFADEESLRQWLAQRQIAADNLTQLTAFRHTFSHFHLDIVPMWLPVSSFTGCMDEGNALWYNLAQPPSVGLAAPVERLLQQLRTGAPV", "details": "relative to 8-OxodGuo:dA duplex; more rapid than from a dG:dA mispair"}, "hOGG1": {"biological_target": "hOGG1 (Homo sapiens, UniProt O15527)", "sequence (O15527 whole entry)": "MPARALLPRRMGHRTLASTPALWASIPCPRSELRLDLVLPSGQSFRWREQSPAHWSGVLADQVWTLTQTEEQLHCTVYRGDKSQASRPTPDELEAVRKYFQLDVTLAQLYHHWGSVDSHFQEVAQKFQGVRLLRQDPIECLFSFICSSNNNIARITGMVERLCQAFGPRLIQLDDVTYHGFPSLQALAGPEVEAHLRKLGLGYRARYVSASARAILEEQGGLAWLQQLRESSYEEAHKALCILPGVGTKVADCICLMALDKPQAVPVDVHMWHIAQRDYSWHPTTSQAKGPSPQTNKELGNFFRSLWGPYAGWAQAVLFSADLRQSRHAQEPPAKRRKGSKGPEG", "details": "dC versus dA opposite the lesion"}},
  "data": [
    {"smiles": "Nc1nc(O)c(NC=O)c(NC2C[C@H](O)[C@@H](CO)O2)n1", "note": "(stereo partly drawn) [Fapy·dG, N6-(2-Deoxy-α,β-D-erythropentofuranosyl)-2,6-diamino-4-hydroxy-5-formamidopyrimidine]", "values": [
      {"measurement": "efficiency of glycosidic bond hydrolysis of the lesion in a Fapy·dG:dC base pair relative to opposite dA", "setting": "Fpg", "value": "~20", "unit": "times"},
      {"measurement": "incision of mismatched dA opposite Fapy·dG, more slowly than from a duplex containing 8-OxodGuo:dA", "setting": "MutY", "value": 4, "unit": "fold"},
      {"measurement": "discrimination against a Fapy·dG:dA base pair", "setting": "hOGG1", "value": "more than 40 fold"}
    ]}
  ]
}
